Values of other authors as cited in patent US9446004B2, “Transdermal nicotine salt delivery system” (ALZA Corporation, priority 2005, dated 2016).
Like-named read-outs stand apart in the source and are kept apart here.

CN1CCCC1c1cccnc1 (centres unmarked) [Nicotine]
pKa (first pKa): about 8
pKa (second pKa): ~3
